A word on the efflux ratio: it is the permeability from basolateral to apical divided by that in the opposite direction, in the common usage. What is called Ki is a measure of affinity in units of concentration, obtained from inhibition or displacement. Read a high Ki as a looser hold on the target. What is called Kd is the equilibrium constant for the complex coming apart. Low values mean tighter binding, high ones weaker binding.

Data set [1] in a line: Efflux ratio of permeability from basolateral to apical side over apical to basolateral side in human Caco2 cells at 10 to 100 uM after 30 to 120 mins. The class given is ADME, cell-based. As to conditions: Caco-2; call rule not given here. On the technique in general: Passage across Caco-2 layers is used to estimate intestinal permeability.
The nature of data set [2]: Drug metabolism in rat liver S9 fraction assessed as compound remaining at 10 uM after 30 mins by RP-HPLC analysis. The following applies: read-out: Stability. The data set is classed as ADME, subcellular.
In data set [3] the target is T1, 5-hydroxytryptamine receptor 7 (Homo sapiens, UniProt P34969). The experiment in a line: Displacement of [3H]5-CT from human 5HT7 receptor transfected in HEK293 cells after 60 mins. The class given is cell-based. For orientation: In a radioligand displacement assay an active substance lowers the binding of a labelled ligand.
T1 sequence (P34969 whole entry): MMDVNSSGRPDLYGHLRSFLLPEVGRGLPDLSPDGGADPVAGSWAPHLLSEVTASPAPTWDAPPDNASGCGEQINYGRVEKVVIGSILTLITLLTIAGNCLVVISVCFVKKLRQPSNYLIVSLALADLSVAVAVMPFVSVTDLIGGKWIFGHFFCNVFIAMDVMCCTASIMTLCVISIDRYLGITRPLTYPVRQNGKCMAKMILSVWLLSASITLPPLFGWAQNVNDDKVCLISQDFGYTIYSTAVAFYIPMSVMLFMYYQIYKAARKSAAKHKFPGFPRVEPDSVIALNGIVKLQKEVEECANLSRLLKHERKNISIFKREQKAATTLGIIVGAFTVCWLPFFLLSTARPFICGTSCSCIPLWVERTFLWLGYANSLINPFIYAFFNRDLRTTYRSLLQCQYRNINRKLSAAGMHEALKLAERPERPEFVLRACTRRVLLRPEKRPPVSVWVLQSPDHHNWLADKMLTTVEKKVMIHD
In data set [4] the target is T2, Adrenergic receptor alpha-1 (Rattus norvegicus, UniProt P15823+P23944+P43140).
T2 sequence (P15823 whole entry): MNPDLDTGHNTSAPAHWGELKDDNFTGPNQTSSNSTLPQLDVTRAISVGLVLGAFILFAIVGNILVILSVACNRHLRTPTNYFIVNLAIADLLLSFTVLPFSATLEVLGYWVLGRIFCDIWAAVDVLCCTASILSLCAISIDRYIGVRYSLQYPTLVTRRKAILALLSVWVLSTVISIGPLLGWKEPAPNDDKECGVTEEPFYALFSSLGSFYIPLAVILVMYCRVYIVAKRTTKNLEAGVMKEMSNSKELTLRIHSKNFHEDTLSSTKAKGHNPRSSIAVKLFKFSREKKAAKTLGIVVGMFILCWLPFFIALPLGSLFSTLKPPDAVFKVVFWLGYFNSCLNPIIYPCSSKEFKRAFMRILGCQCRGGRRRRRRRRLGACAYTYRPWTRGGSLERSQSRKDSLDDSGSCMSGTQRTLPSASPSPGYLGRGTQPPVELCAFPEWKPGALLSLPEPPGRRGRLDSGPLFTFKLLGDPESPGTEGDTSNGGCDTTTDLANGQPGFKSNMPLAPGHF
T2 sequence (P23944 whole entry): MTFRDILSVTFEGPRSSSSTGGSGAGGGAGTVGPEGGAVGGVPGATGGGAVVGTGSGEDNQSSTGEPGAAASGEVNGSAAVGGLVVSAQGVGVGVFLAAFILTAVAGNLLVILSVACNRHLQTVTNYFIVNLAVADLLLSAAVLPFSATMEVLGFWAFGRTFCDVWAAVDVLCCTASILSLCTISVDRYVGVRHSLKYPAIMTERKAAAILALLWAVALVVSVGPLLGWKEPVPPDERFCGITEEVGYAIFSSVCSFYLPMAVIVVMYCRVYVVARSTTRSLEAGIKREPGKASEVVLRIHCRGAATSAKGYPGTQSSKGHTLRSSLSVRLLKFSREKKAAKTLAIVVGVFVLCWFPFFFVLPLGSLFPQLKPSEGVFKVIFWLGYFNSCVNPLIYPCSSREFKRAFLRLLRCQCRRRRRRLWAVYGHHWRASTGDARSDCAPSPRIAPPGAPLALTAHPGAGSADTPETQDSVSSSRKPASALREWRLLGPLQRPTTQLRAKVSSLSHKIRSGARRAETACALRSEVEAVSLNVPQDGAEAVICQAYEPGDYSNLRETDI
T2 sequence (P43140 whole entry): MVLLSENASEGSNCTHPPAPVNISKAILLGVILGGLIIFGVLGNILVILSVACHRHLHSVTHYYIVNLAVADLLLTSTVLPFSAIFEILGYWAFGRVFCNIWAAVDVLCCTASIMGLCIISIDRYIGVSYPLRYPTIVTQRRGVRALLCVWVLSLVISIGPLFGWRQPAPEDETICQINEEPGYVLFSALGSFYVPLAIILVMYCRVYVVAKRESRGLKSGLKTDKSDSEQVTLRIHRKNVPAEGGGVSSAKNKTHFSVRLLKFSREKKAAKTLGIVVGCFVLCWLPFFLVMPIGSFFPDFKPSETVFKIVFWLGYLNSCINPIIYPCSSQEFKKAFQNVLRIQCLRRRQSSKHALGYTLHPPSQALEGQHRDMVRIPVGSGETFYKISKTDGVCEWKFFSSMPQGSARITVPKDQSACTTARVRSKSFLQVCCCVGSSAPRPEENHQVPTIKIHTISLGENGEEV
The experiment in a line: Displacement of [3H]-prazosin from rat brain alpha1 adrenergic receptor after 50 mins.

Data set [5] deals with T3, 5-hydroxytryptamine receptor 1A (Homo sapiens, UniProt P08908).
T3 sequence (P08908 whole entry): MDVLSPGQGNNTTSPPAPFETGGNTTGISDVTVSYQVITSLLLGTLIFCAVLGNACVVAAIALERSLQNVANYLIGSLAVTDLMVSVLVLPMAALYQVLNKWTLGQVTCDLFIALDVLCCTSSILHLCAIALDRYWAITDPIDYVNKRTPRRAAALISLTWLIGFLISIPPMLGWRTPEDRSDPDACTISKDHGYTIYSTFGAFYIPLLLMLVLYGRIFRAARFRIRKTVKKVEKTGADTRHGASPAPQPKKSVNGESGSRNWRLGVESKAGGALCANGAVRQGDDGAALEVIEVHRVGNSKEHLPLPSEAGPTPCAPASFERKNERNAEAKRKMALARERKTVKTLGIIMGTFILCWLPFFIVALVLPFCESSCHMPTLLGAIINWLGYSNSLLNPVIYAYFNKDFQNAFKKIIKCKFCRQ
The data set is described as follows: Displacement of [3H]8-OH-DPAT from human 5HT1A receptor transfected in HEK293-EBNA cells after 120 mins. The class given is cell-based.

Data set [6] can be described thus: Drug uptake in Danish Landrace pig brain at 432 +/- 102 MBq, iv administered 90 mins prior to cyclosporine A challenge measured after 30 mins by PET imaging analysis. The class given is ADME, organism-based, Sus scrofa. The following applies: in vivo, 0.5 h.
A further data set has as its system Sus scrofa. The experiment in a line: Ratio of drug uptake in Danish Landrace pig brain at 432 +/- 102 MBq, iv in presence of cyclosporine A to drug uptake in Danish Landrace pig brain at 432 +/- 102 MBq, iv after 90 mins. As to conditions: in vivo.
The nature of data set [7]: Drug uptake in Danish Landrace pig brain at 432 +/- 102 MBq, iv after 90 mins by PET imaging analysis. The data set is classed as ADME, organism-based, Sus scrofa. The following applies: in vivo.
The nature of data set [8]: Drug uptake in Danish Landrace pig brain at 52 to 300 MBq, iv administered 90 mins prior to cyclosporine A challenge measured after 30 mins by PET imaging analysis. The data set is classed as ADME, organism-based, Sus scrofa. As to conditions: in vivo, 0.5 h.
Data set [9] can be described thus: Drug metabolism in Danish Landrace pig plasma assessed as compound remaining at 432 +/- 102 MBq, iv after 5 mins. The data set is classed as ADME, organism-based, Sus scrofa. The following applies: read-out: Stability.
The nature of data set [10]: Drug uptake in Danish Landrace pig brain at 52 to 300 MBq, iv after 90 mins by PET imaging analysis. The data set is classed as ADME, organism-based, Sus scrofa. The following applies: in vivo.
Data set [11] deals with T1, 5-hydroxytryptamine receptor 7. The experiment in a line: Displacement of [3H]5-CT from human 5HT7 receptor transfected in HEK293 cells after 60 mins by Scatchard plot analysis. The class given is cell-based.

Bounds are passed on as bounds.

On to `COc1ccc(-c2ccccc2N2CCN(CCOCCC(=O)NCc3ccncc3)CC2)cc1`, for which the efflux ratio at up to 100 µM in [1] was found to be 4.48. For the same compound, in data set [2], the remaining at 0.5 h, 10 µM is 82%.

As to `COc1ccc(CNC(=O)CCCCCN2CCN(c3ncccc3-c3ccncc3)CC2)cc1`, the results for the inhibition constant (Ki) in data set [3], in data set [4] and in data set [5] were 26.1 nM, 816 nM and 614 nM, respectively.

Consider `COc1ccccc1-c1cccc(N2CCN(CCOCCC(=O)NCc3ccc(F)nc3)CC2)c1`, for which the Ki was more than 1000 nM in data set [3], more than 1000 nM in data set [4] and 387 nM in [5].

Take `O=C(CCCCCN1CCN(c2cccnc2-c2ccncc2)CC1)NCc1ccc(F)nc1`: the figures for the Ki in data set [3], in data set [4] and in data set [5] were 66.7 nM, 414 nM and 961 nM, respectively.

As to `COc1ccc(CNC(=O)CCOCCN2CCN(c3cccc(-c4ccccc4OC)c3)CC2)cc1`, the Ki is more than 1000 nM in data set [3], more than 1000 nM in data set [4] and 186 nM in data set [5].

With `COc1ccc(-c2ccccc2N2CCN(CCOCCC(=O)NCc3ccc(F)nc3)CC2)cc1`, the Ki in data set [3] is 34.5 nM; in [4], 386 nM; in data set [5], 568 nM.

Take `COc1ccc(-c2ccccc2N2CCN(CCCCCC(=O)NCc3ccc(F)nc3)CC2)cc1`: the Ki in data set [4] came to 13.3 nM.

For the compound `COc1ccc(CNC(=O)CCOCCN2CCN(c3ccccc3-c3ccccc3C)CC2)cc1`, the Ki is 33.4 nM in data set [3], 162 nM in data set [4] and 743 nM in data set [5].

For the compound `[11CH3]Oc1ccc(-c2ccccc2N2CCN(CCCCCC(=O)NCc3ccncc3)CC2)cc1`, the Drug uptake result in [6] and in data set [7] was “Active” throughout. The Ratio in the data set with Sus scrofa is recorded as 3.

`[11CH3]Oc1ccc(-c2ccccc2N2CCN(CCOCCC(=O)NCc3ccncc3)CC2)cc1`: the Drug uptake result in [8] and in data set [10] was “Active” in each case. In addition, the remaining at 5 min in data set [9] was 30%.

For the compound `Cc1ccccc1-c1ccccc1N1CCN(CCOCCC(=O)NCc2ccc(F)nc2)CC1`, the Ki in data set [3] turned out to be 12.8 nM; in data set [4], 365 nM; in [5] it was 875 nM.

Take `COc1ccc(CNC(=O)CCCCCN2CCN(c3cccnc3-c3ccncc3)CC2)cc1`: the results for the inhibitory constant (Ki) in data set [3], in data set [4] and in data set [5] were 64.2 nM, more than 1000 nM and 537 nM, respectively.

As to `COc1ccc(CNC(=O)CCOCCN2CCN(c3ccccc3-c3ccc(F)cc3)CC2)cc1`, the Ki in data set [3] came out at 45.2 nM; in data set [4], 156 nM; in [5], 272 nM.

On to `O=C(CCCCCN1CCN(c2ncccc2-c2ccncc2)CC1)NCc1ccc(F)nc1`, for which the results for the Ki in [3], in [4] and in [5] were 71 nM, 255 nM and 203 nM, respectively.

As to `O=C(CCOCCN1CCN(c2ccccc2-c2ccc(F)cc2)CC1)NCc1ccc(F)nc1`, the Ki came out at 15.9 nM in data set [3], 51.3 nM in [4] and 433 nM in data set [5].

For the compound `COc1ccc(-c2ccccc2N2CCN(CCCCCC(=O)NCc3ccncc3)CC2)cc1`, the efflux ratio at up to 100 µM in [1] was 3.33. In data set [11], the Bmax worked out at 2.7 pmol/mg and the Kd came out at 1.17 nM. Also, in data set [2], the remaining at 0.5 h, 10 µM worked out at 76%.

Values taken from ChEMBL document CHEMBL3112417, “Design, synthesis, radiolabeling and in vivo evaluation of potential positron emission tomography (PET) radioligands for brain imaging of the 5-HT₇ receptor” (Bioorg Med Chem, 2014).
